Laboratory results published in US9034921B2, “Diphenylmethane derivatives as SGLT2 inhibitors” (GREEN CROSS CORPORATION, priority 2011, dated 2015).

Target: human SGLT2 (Homo sapiens (Human), UniProt P31639)
Test: Inhibitory effects on human SGLT2 activities (14C-AMG uptake, sodium-dependent glucose transport assay)
Format: cell-based
Settings: CHO cells stably expressing hSGLT2, 37° C., 2 h, single determinations
Excerpt: Test 1: Cloning and Cell Line Construction for Human SGLT2
Human SGLT2 (hSGLT2) gene was amplified by PCR from cDNA-Human Adult Normal Tissue Kidney (Invitrogen). The hSGLT2 sequence was cloned into pcDNA3.1(+) for mammalian expression and stably transfected into chinese hamster ovary (CHO) cells. SGLT2-expressing clones were selected based on resistance to G418 antibiotic (Geneticin) and activity in the ^14C-α-methyl-D-glucopyranoside (^14C-AMG) uptake assay.
Test 2: Inhibitory Effects on Human SGLT2 Activities
For sodium-dependent glucose transport assay, cells expressing hSGLT2 were seeded into a 96-well culture plate at a density of 5×10^4 cells/well in RPMI medium 1640 containing 10% fetal bovine serum. The cells were used 1 day after plating. They were incubated in pretreatment buffer (10 mM HEPES, 5 mM Tris, 140 mM choline chloride, 2 mM KCl, 1 mM CaCl2, and 1 mM MgCl2, pH 7.4) at 37° C. for 10 min. They were then incubated in uptake buffer (10 mM HEPES, 5 mM Tris, 140 mM NaCl, 2 mM KCl, 1 mM CaCl2, 1 mM MgCl2, and 1 mM ^14C-nonlabeled AMG pH 7.4) containing ^14C-labeled AMG (8 μM) and the inventive compound or dimethyl sulfoxide (DMSO) vehicle at 37° C. for 2 h. Cells were washed twice with washing buffer (pretreatment buffer containing 10 mM AMG at room temperature) and then the radioactivity was measured using a liquid scintillation counter. IC50 was determined by nonlinear regression analysis using GraphPad PRISM [Katsuno, K. et al. J. Pharmacol. Exp. Ther. 2007, 320, 323-330; Han, S. et al. Diabetes, 2008, 57, 1723-1729].

Sequence of human SGLT2 (P31639 whole entry): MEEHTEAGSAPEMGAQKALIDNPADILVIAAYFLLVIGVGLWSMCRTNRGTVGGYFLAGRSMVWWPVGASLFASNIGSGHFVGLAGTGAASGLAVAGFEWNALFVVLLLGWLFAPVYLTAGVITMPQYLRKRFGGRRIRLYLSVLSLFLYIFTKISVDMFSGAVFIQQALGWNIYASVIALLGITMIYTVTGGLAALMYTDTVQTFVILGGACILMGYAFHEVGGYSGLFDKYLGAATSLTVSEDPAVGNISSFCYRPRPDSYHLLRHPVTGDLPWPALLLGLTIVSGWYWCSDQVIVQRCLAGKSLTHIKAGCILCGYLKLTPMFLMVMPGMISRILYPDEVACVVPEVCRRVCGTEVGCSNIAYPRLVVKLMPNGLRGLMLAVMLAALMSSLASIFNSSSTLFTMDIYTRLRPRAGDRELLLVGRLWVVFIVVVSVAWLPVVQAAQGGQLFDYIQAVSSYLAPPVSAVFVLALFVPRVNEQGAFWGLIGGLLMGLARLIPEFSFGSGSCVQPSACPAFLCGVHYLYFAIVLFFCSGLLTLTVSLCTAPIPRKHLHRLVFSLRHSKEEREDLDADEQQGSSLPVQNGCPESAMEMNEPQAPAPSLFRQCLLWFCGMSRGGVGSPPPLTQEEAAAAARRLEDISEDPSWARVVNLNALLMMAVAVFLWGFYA

How did the IC50 turn out when OC[C@H]1O[C@@H](c2ccc(Cl)c(Cc3ccc4c(cnn4Cc4ccccc4)c3)c2)[C@H](O)[C@@H](O)[C@@H]1O [Example E033, (2S,3R,4R,5S,6R)-2-(3-((1-Benzyl-1H-indazol-5-yl)methyl)-4-chlorophenyl)-6-(hydroxymethyl)tetrahydro-2H-pyran-3,4,5-triol] was run?
The IC50 was 2.39 nM.

With Cn1ccc2cc(Cc3cc([C@@H]4O[C@H](CO)[C@@H](O)[C@H](O)[C@H]4O)ccc3Cl)ccc21 [Example E034, (2S,3R,4R,5S,6R)-2-(4-Chloro-3-((1-methyl-1H-indol-5-yl)methyl)phenyl)-6-(hydroxymethyl)tetrahydro-2H-pyran-3,4,5-triol] as the molecule, how does the IC50 read?
Its IC50 is 2.98 nM.

For Cn1ncc2cc(Cc3cc([C@@H]4O[C@H](CO)[C@@H](O)[C@H](O)[C@H]4O)ccc3Cl)ccc21 [Example E035, (2S,3R,4R,5S,6R)-2-(4-Chloro-3-((1-methyl-1H-indazol-5-yl)methyl)phenyl)-6-(hydroxymethyl)tetrahydro-2H-pyran-3,4,5-triol], which IC50 is on record?
Its IC50 is 1.72 nM.

How did the IC50 turn out when Cn1cc2cc(Cc3cc([C@@H]4O[C@H](CO)[C@@H](O)[C@H](O)[C@H]4O)ccc3Cl)ccc2n1 [Example E036, (2S,3R,4R,5S,6R)-2-(4-Chloro-3-((2-methyl-2H-indazol-5-yl)methyl)phenyl)-6-(hydroxymethyl)tetrahydro-2H-pyran-3,4,5-triol] was run?
The IC50 was 2.31 nM.

With CCn1ncc2cc(Cc3cc([C@@H]4O[C@H](CO)[C@@H](O)[C@H](O)[C@H]4O)ccc3Cl)ccc21 [Example E037, (2S,3R,4R,5S,6R)-2-(4-Chloro-3-((1-ethyl-1H-indazol-5-yl)methyl)phenyl)-6-(hydroxymethyl)tetrahydro-2H-pyran-3,4,5-triol] as the molecule, how does the IC50 read?
Its IC50 is 1.58 nM.

Which IC50 does the source give for CCn1cc2cc(Cc3cc([C@@H]4O[C@H](CO)[C@@H](O)[C@H](O)[C@H]4O)ccc3Cl)ccc2n1 [Example E038, (2S,3R,4R,5S,6R)-2-(4-Chloro-3-((2-ethyl-2H-indazol-5-yl)methyl)phenyl)-6-(hydroxymethyl)tetrahydro-2H-pyran-3,4,5-triol] here?
Its IC50 is 1.76 nM.

For CC(C)n1ncc2cc(Cc3cc([C@@H]4O[C@H](CO)[C@@H](O)[C@H](O)[C@H]4O)ccc3Cl)ccc21 [Example E039, (2S,3R,4R,5S,6R)-2-(4-Chloro-3-((1-isopropyl-1H-indazol-5-yl)methyl)phenyl)-6-(hydroxymethyl)tetrahydro-2H-pyran-3,4,5-triol], which IC50 is on record?
Its IC50 is 1.76 nM.

How did the IC50 turn out when CC(C)n1cc2cc(Cc3cc([C@@H]4O[C@H](CO)[C@@H](O)[C@H](O)[C@H]4O)ccc3Cl)ccc2n1 [Example E040, (2S,3R,4R,5S,6R)-2-(4-Chloro-3-((2-isopropyl-2H-indazol-5-yl)methyl)phenyl)-6-(hydroxymethyl)tetrahydro-2H-pyran-3,4,5-triol] was run?
The IC50 was 4.44 nM.

Which IC50 does the source give for COc1cc([C@@H]2O[C@H](CO)[C@@H](O)[C@H](O)[C@H]2O)cc(Cc2ccc3c(c2)OCCO3)c1Cl [Example E043, (2S,3R,4R,5S,6R)-2-(4-Chloro-3-((2,3-dihydrobenzo[b][1,4]dioxin-6-yl)methyl)-5-methoxyphenyl)-6-(hydroxymethyl)tetrahydro-2H-pyran-3,4,5-triol] here?
Its IC50 is 2.68 nM.

With OC[C@H]1O[C@@H](c2cc(Cc3ccc4c(c3)OCCO4)c(Cl)c3c2OCCC3)[C@H](O)[C@@H](O)[C@@H]1O [Example E044, (2S,3R,4R,5S,6R)-2-(5-Chloro-6-((2,3-dihydrobenzo[b][1,4]dioxin-6-yl)methyl)chroman-8-yl)-6-(hydroxymethyl)tetrahydro-2H-pyran-3,4,5-triol] as the molecule, how does the IC50 read?
Its IC50 is 1.65 nM.

OC[C@H]1O[C@@H](c2cc(Cc3ccc4c(c3)OCCO4)c(Cl)c3c2CCO3)[C@H](O)[C@@H](O)[C@@H]1O [Example E045, (2S,3R,4R,5S,6R)-2-(7-Chloro-6-((2,3-dihydrobenzo[b][1,4]dioxin-6-yl)methyl)-2,3-dihydrobenzofuran-4-yl)-6-(hydroxymethyl)tetrahydro-2H-pyran-3,4,5-triol] was tested. Which IC50 did it give?
Its IC50 is 1.37 nM.

How did the IC50 turn out when CCOc1ccc(Cc2cc([C@@H]3O[C@H](CO)[C@@H](O)[C@H](O)[C@H]3O)c3sccc3c2Cl)cc1 [Example E046, (2S,3R,4R,5S,6R)-2-(4-Chloro-5-(4-ethoxybenzyl)benzo[b]thiophen-7-yl)-6-(hydroxymethyl)tetrahydro-2H-pyran-3,4,5-triol] was run?
Its IC50 is 275 nM.

How did the IC50 turn out when OC[C@H]1S[C@@H](c2ccc(Cl)c(Cc3ccc4c(c3)OCCO4)c2)[C@H](O)[C@@H](O)[C@@H]1O [Example E047, (2S,3R,4R,5S,6R)-2-(4-Chloro-3-((2,3-dihydrobenzo[b][1,4]dioxin-6-yl)methyl)phenyl)-6-(hydroxymethyl)tetrahydro-2H-thiopyran-3,4,5-triol] was run?
Its IC50 is 4.17 nM.

How did the IC50 turn out when COc1cc(Cl)c(Cc2ccc3c(c2)OCCO3)cc1[C@@H]1S[C@H](CO)[C@@H](O)[C@H](O)[C@H]1O [Example E048, (2S,3R,4R,5S,6R)-2-(4-Chloro-5-((2,3-dihydrobenzo[b][1,4]dioxin-6-yl)methyl)-2-methoxyphenyl)-6-(hydroxymethyl)tetrahydro-2H-thiopyran-3,4,5-triol] was run?
The IC50 was 2.62 nM.

How did the IC50 turn out when OC[C@H]1O[C@@H](c2ccc(Cl)c(Cc3ccc4c(c3)OCCO4)c2)[C@H](O)[C@@H](O)[C@@H]1O [Example E049, (2S,3R,4R,5S,6R)-2-(4-Chloro-3-((2,3-dihydrobenzo[b][1,4]dioxin-6-yl)methyl)phenyl)-6-(hydroxymethyl)-tetrahydro-2H-pyran-3,4,5-triol] was run?
Its IC50 is 1.23 nM.

With OC[C@H]1O[C@@H](c2cc(Cc3ccc4c(c3)OCCO4)c(Cl)cc2O)[C@H](O)[C@@H](O)[C@@H]1O [Example E052, (2S,3R,4R,5S,6R)-2-(4-Chloro-5-((2,3-dihydrobenzo[b][1,4]dioxin-6-yl)methyl)-2-hydroxyphenyl)-6-(hydroxymethyl)-tetrahydro-2H-pyran-3,4,5-triol] as the molecule, how does the IC50 read?
Its IC50 is 1.64 nM.

For Cc1ccc([C@@H]2O[C@H](CO)[C@@H](O)[C@H](O)[C@H]2O)cc1Cc1ccc2c(c1)OCCO2 [Example E054, (2S,3R,4R,5S,6R)-2-(3-((2,3-Dihydrobenzo[b][1,4]dioxin-6-yl)methyl)-4-methylphenyl)-6-(hydroxymethyl)-tetrahydro-2H-pyran-3,4,5-triol], which IC50 is on record?
Its IC50 is 2.02 nM.

Which IC50 does the source give for OC[C@H]1O[C@@H](c2ccc(Cl)c(Cc3ccc4c(c3)OCO4)c2)[C@H](O)[C@@H](O)[C@@H]1O [Example E056, (2S,3R,4R,5S,6R)-2-(3-(Benzo[d][1,3]dioxol-5-ylmethyl)-4-chlorophenyl)-6-(hydroxymethyl)-tetrahydro-2H-pyran-3,4,5-triol] here?
Its IC50 is 2.58 nM.

How did the IC50 turn out when OC[C@H]1O[C@@H](c2ccc(Cl)c(Cc3ccc4c(c3)CCC4)c2)[C@H](O)[C@@H](O)[C@@H]1O [Example E057, (2S,3R,4R,5S,6R)-2-(4-Chloro-3-((2,3-dihydro-1H-inden-5-yl)methyl)phenyl)-6-(hydroxymethyl)-tetrahydro-2H-pyran-3,4,5-triol] was run?
Its IC50 is 2.15 nM.

Which IC50 does the source give for OC[C@H]1O[C@@H](c2ccc(Cl)c(Cc3ccc4c(c3)CCCC4)c2)[C@H](O)[C@@H](O)[C@@H]1O [Example E060, (2S,3R,4R,5S,6R)-2-(4-Chloro-3-((5,6,7,8-tetrahydronaphthalen-2-yl)methyl)phenyl)-6-(hydroxymethyl)-tetrahydro-2H-pyran-3,4,5-triol] here?
The IC50 was 2.99 nM.

OC[C@H]1O[C@@H](c2ccc(Cl)c(Cc3ccc4c(c3)CCCS4)c2)[C@H](O)[C@@H](O)[C@@H]1O [Example E061, (2S,3R,4R,5S,6R)-2-(4-Chloro-3-(thiochroman-6-ylmethyl)phenyl)-6-(hydroxymethyl)-tetrahydro-2H-pyran-3,4,5-triol] was tested. Which IC50 did it give?
Its IC50 is 3.35 nM.
